SMILES strings stand for the structures.

The target of one assay is T1, PDE4B (Homo sapiens, UniProt Q07343).
T1 construct: hexa-histidine (His6) (N); made in house
The assay is described as follows: PDE4 IMAP Assay. The format is biochemical. To be noted: catalytic domain of PDE4B, fluorescence polarization. The method in brief:
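His-tagged PDE4B catalytic domain was preincubated with compound for 10 min, then given fluorescent cAMP substrate for 2 h at room temperature. IMAP binding reagent was added for 10–30 min to capture the nucleotide monophosphate product, and fluorescence polarization was read.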

Another assay concerns PDE4. The assay is described as follows: PDE4 Cellular CNG Assay. The format is cell-based. To be noted: HEK293 cells stably expressing the CNG channel. From the text: Compounds may be screened for functional potency in in vitro cellular assays for their ability to inhibit the activity of phosphodiesterase (PDE) enzymes. A commercial membrane potential assay, Molecular Device's membrane potential assay kit, was modified and utilized to measure the inhibitory activity of compounds on PDE isoforms in living cells. The cellular assay utilizes genetically engineered cyclic nucleotide-gated (CNG) channels as cyclic-AMP (cAMP) sensors. On binding cAMP these ion channels open, allowing the flow of cations across the plasma membrane. CNG channel activity can be monitored by measuring Ca^2+influx in cell populations. The influx of Ca causes a change in membrane potential that is measured by voltage sensitive dyes. PDE inhibitors prevent the degradation of cAMP that is generated by adenylyl cyclases that are activated upon stimulation of G protein-coupled receptors (GPCR) linked to the cAMP pathway. In brief, Molecular Device's membrane potential dye was added to HEK293 cells stably expressing the CNG channel and incubated for 2 hours at room temperature. Test compounds were then added to the cells and incubated for 15 minutes. A GPCR agonist was then added to the cells to stimulate the cAMP pathway and incubated for 45 minutes. Fluorescent measurements were then conducted with either the Molecular Devices Acquest or Analyst. PDE inhibitors will inhibit the degradation of cAMP and cause an increase in fluorescent signal. Roflumilast and Rolipram are the positive controls used in the assay.

A further assay concerns recombinant human PDE4. To be noted: reported value; read-out: IC50 with respect to inhibiting recombinant human PDE4; cited from earlier work.

T1 sequence (Q07343 330-659 limits assumed, species assumed): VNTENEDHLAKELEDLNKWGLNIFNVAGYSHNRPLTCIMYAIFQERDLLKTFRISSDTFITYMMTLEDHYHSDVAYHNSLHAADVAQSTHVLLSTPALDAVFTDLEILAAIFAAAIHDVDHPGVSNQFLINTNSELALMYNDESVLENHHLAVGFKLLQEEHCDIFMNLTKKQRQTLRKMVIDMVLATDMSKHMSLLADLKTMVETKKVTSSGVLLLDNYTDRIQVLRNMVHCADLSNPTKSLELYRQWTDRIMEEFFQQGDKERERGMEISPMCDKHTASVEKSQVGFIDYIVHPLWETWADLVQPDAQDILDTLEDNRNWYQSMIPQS

`COc1ccc(C2=NN(C(=O)c3cc(OC)c(OC)c(OC)c3)C(c3ccc(F)cc3)C2)cc1OC` (stereo not shown) [Example 42, (3-(3,4-dimethoxyphenyl)-5-(4-fluorophenyl)-4,5-dihydro-1H-pyrazol-1-yl)(3,4,5-trimethoxyphenyl)methanone]: the inhibition at 10 µM against PDE4B is ≥ 50%. The “PDE4 Cellular CNG Assay Activity at 10 μM” value with PDE4 is reported as “+ (+ indicates Activity ≧50% at 10 μM)”. On to `COc1ccc(C2CNC(=O)C2)cc1OC1CCCC1` (stereo not shown) [rolipram], for which the IC50 in the assay on recombinant human PDE4 is ~0.2 µM.

For the compound `COc1ccc(C2=NN(C(=O)c3ccccc3Cl)C(c3ccc(F)cc3)C2)cc1OC` (stereo not shown) [Example 31, (2-chlorophenyl)(3-(3,4-dimethoxyphenyl)-5-(4-fluorophenyl)-4,5-dihydro-1H-pyrazol-1-yl)methanone], the inhibition at 10 µM against PDE4B was ≥ 50%. For the same compound, the “PDE4 Cellular CNG Assay Activity at 10 μM” value in the assay on PDE4 was “+ (+ indicates Activity ≧50% at 10 μM)”. Turning to `COc1ccc(C2=NN(C(=O)c3cc(OC)c(OC)c(OC)c3)C(c3cccc([N+](=O)[O-])c3)C2)cc1OC` (stereo not shown) [Example 77, (3-(3,4-dimethoxyphenyl)-5-(3-nitrophenyl)-4,5-dihydro-1H-pyrazol-1-yl)(3,4,5-trimethoxyphenyl)methanone], on PDE4B, the inhibition at 10 µM was ≥ 50%. The “PDE4 Cellular CNG Assay Activity at 10 μM” value in the assay on PDE4 is reported as “+ (+ indicates Activity ≧50% at 10 μM)”. Consider `COc1ccc(C2=NN(C(=O)c3cccs3)C(c3ccccc3F)C2)cc1OC` (stereo not shown) [Example 40, (3-(3,4-dimethoxyphenyl)-5-(2-fluorophenyl)-4,5-dihydro-1H-pyrazol-1-yl)(thiophen-2-yl)methanone], for which, at PDE4B, the inhibition at 10 µM was ≥ 50%. The “PDE4 Cellular CNG Assay Activity at 10 μM” value in the assay with PDE4 is given as “− (− indicates Activity <50% at 10 μM)”. In the case of `COc1ccc(C2=NN(C(=O)c3ccc(Br)o3)C(c3ccc(Cl)cc3)C2)cc1OC` (stereo not shown) [Example 47, (5-bromofuran-2-yl)(5-(4-chlorophenyl)-3-(3,4-dimethoxyphenyl)-4,5-dihydro-1H-pyrazol-1-yl)methanone], the inhibition at 10 µM against PDE4B was ≥ 50%. The same measure, in the same setting: the value for `COc1ccc(C2=NN(C(=O)CCC(=O)O)C(c3ccc(F)cc3)C2)cc1OC` (stereo not shown) [Example 72, 4-(3-(3,4-dimethoxyphenyl)-5-(4-fluorophenyl)-4,5-dihydro-1H-pyrazol-1-yl)-4-oxobutanoic acid] was < 50%. Still for that read-out and setting: the result for `COc1ccc(C2=NN(S(=O)(=O)c3ccccc3)C(c3ccc(C)cc3)C2)cc1OC` (stereo not shown) [Example 56, 3-(3,4-dimethoxyphenyl)-1-(phenylsulfonyl)-5-p-tolyl-4,5-dihydro-1H-pyrazole] reads < 50%; that for `COc1ccc(C2=NN(C(=O)CCCC(=O)O)C(c3ccccc3Cl)C2)cc1OC` (stereo not shown) [Example 67, 5-(5-(2-chlorophenyl)-3-(3,4-dimethoxyphenyl)-4,5-dihydro-1H-pyrazol-1-yl)-5-oxopentanoic acid], < 50%; that for `COc1ccc(C2CC(c3ccc(OC)c(OC)c3)=NN2S(=O)(=O)c2ccc(C)cc2)cc1` (stereo not shown) [Example 92, 3-(3,4-dimethoxyphenyl)-5-(4-methoxyphenyl)-1-tosyl-4,5-dihydro-1H-pyrazole], < 50%. Regarding `CCc1ccc(C2CC(c3ccc(OC)c(OC)c3)=NN2C(=O)CCC(=O)O)cc1` (stereo not shown) [Example 19, 4-(3-(3,4-dimethoxyphenyl)-5-(4-ethylphenyl)-4,5-dihydro-1H-pyrazol-1-yl)-4-oxobutanoic acid], the inhibition at 10 µM at PDE4B is < 50%. In the case of `COc1ccc(C2=NN(C(C)=O)C(c3ccccc3OC)C2)cc1OC` (stereo not shown) [Example 105, 1-(3-(3,4-dimethoxyphenyl)-5-(2-methoxyphenyl)-4,5-dihydro-1H-pyrazol-1-yl)ethanone], the inhibition at 10 µM on PDE4B is < 50%. `COc1ccc(C2=NN(C(=O)CCCC(=O)O)C(c3ccc(Cl)cc3)C2)cc1OC` (stereo not shown) [Example 95, 5-(5-(4-chlorophenyl)-3-(3,4-dimethoxyphenyl)-4,5-dihydro-1H-pyrazol-1-yl)-5-oxopentanoic acid]: the inhibition at 10 µM on PDE4B is < 50%. `COc1ccc(C2=NN(C(=O)c3cc(OC)c(OC)c(OC)c3)C(c3ccc(Br)cc3)C2)cc1OC` (stereo not shown) [Example 44, (5-(4-bromophenyl)-3-(3,4-dimethoxyphenyl)-4,5-dihydro-1H-pyrazol-1-yl)(3,4,5-trimethoxyphenyl)methanone]: at PDE4B, the inhibition at 10 µM was ≥ 50%.

`COc1ccc(C2=NN(C(=O)c3cc(OC)c(OC)c(OC)c3)C(c3ccc(OC)c(OC)c3)C2)cc1OC` (stereo not shown) [Example 78, (3,5-bis(3,4-dimethoxyphenyl)-4,5-dihydro-1H-pyrazol-1-yl)(3,4,5-trimethoxyphenyl)methanone]: the inhibition at 10 µM on PDE4B was < 50%.
